SMILES strings stand for the structures. Where “and” joins values, the source holds several entries; their conditions need not be identical. Equal entries are not always repeated.

For `CNC(=O)ON=Cc1nn(-c2c(Cl)cc(C(F)(F)F)cc2Cl)c(N)c1[S+](C)[O-]` (stereo not drawn), the melting point (commonly the temperature of the solid-liquid transition) lay within 146 to 147 °C.
With `C[S+]([O-])c1c(C=NO[Si](C)(C)C(C)(C)C)nn(-c2c(Cl)cc(C(F)(F)F)cc2Cl)c1N` (stereo not drawn), the melting point fell in the range of 150 to 154 °C.
As for `C[S+]([O-])c1c(C=NO)nn(-c2c(Cl)cc(C(F)(F)F)cc2Cl)c1N` (stereo not drawn) [Compound 1, 5-Amino-1-[2,6-dichloro-4-(trifluoromethyl)phenyl]-4-methylsulfinyl-1H-pyrazole-3-carboxaldehyde oxime], the melting point was 219 to 221 °C (dec.).
In turn, `CCNc1c([S+](C)[O-])c(C=NO)nn1-c1c(Cl)cc(C(F)(F)F)cc1Cl` (stereo not drawn) [Compound 2, 1-[2,6-Dichloro-4-(trifluoromethyl)phenyl]-5-ethylamino-4-methylsulfinyl-1H-pyrazole-3-carboxaldehyde oxime] had a melting point of 158 to 161 °C.
The same measure for `CNc1c([S+](C)[O-])c(C=NO)nn1-c1c(Cl)cc(C(F)(F)F)cc1Cl` (stereo not drawn) [Compound 3, 1-[2,6-Dichloro-4-(trifluoromethyl)phenyl]-5-methylamino-4-methylsulfinyl-1H-pyrazole-3-carboxaldehyde oxime]: 162 °C; for `C[S+]([O-])c1c(C=NO)nn(-c2c(Cl)cc(OC(F)(F)F)cc2Cl)c1N` (stereo not drawn) [Compound 4, 5-Amino-1-[2,6-dichloro-4-(trifluoromethoxy)phenyl]-4-methylsulfinyl-1H-pyrazole-3-carboxaldehyde oxime]: 144 to 146 °C; for `CC[S+]([O-])c1c(C=NO)nn(-c2c(Cl)cc(C(F)(F)F)cc2Cl)c1N` (stereo not drawn) [Compound 5, 5-Amino-1-[2,6-dichloro-4-(trifluoromethyl)phenyl]-4-ethylsulfinyl-1H-pyrazole-3-carboxaldehyde oxime]: 195 °C.
Then `Nc1c(SC(F)(F)F)c(C=NO)nn1-c1c(Cl)cc(C(F)(F)F)cc1Cl` [Compound 6, 5-Amino-1-[2,6-dichloro-4-(trifluoromethyl)phenyl]-4-trifluoromethylthio-1H-pyrazole-3-carboxaldehyde oxime], with 163 to 169 °C; and `Nc1c(SC(F)F)c(C=NO)nn1-c1c(Cl)cc(C(F)(F)F)cc1Cl` [Compound 7, 5-Amino-1-[2,6-dichloro-4-(trifluoromethyl)phenyl]-4-difluoromethylthio-1H-pyrazole-3-carboxaldehyde oxime], with 146 to 152 °C; and `CSc1c(C=NO)nn(-c2c(Cl)cc(C(F)(F)F)cc2Cl)c1N` [Compound 8, 5-Amino-1-[2,6-dichloro-4-(trifluoromethyl)phenyl]-4-methylthio-1H-pyrazole-3-carboxaldehyde oxime], with 179 to 181 °C.
Then `CC(=O)ON=Cc1nn(-c2c(Cl)cc(C(F)(F)F)cc2Cl)c(N)c1[S+](C)[O-]` (stereo not drawn) [Compound 10, 5-Amino-1-[2,6-dichloro-4-(trifluoromethyl)phenyl]-4-methylsulfinyl-1H-pyrazole-3-carboxaldehyde O-(acetyl)oxime], with 130 to 134 °C; and `Cc1ccccc1C(=O)ON=Cc1nn(-c2c(Cl)cc(C(F)(F)F)cc2Cl)c(N)c1[S+](C)[O-]` (stereo not drawn) [Compound 11, 5-Amino-1-[2,6-dichloro-4-(trifluoromethyl)phenyl]-4-methylsulfinyl-1H-pyrazole-3-carboxaldehyde O-(2-methylbenzoyl)oxime], with 107 to 110 °C; and `CCOC(=O)C(C)C(=O)ON=Cc1nn(-c2c(Cl)cc(C(F)(F)F)cc2Cl)c(N)c1[S+](C)[O-]` (stereo not drawn) [Compound 13, 5-Amino-1-[2,6-dichloro-4-(trifluoromethyl)phenyl]-4-methylsulfinyl-1H-pyrazole-3-carboxaldehyde O-[2-(ethoxycarbonyl)propionyl]oxime], with 52 to 54 °C.
Molecule `CSc1c(C=NOC(C)=O)nn(-c2c(Cl)cc(C(F)(F)F)cc2Cl)c1N` [Compound 14, 5-Amino-1-[2,6-dichloro-4-(trifluoromethyl)phenyl]-4-methylthio-1H-pyrazole-3-carboxaldehyde O-(acetyl)oxime] returned a melting point of 205.5 to 206.5 °C.
The same measure for `COC(=O)ON=Cc1nn(-c2c(Cl)cc(C(F)(F)F)cc2Cl)c(N)c1SC` [Compound 15, 5-Amino-1-[2,6-dichloro-4-(trifluoromethyl)phenyl]-4-methylthio-1H-pyrazole-3-carboxaldehyde O-(methoxycarbonyl)oxime]: 171 to 173 °C; for `CS(=O)(=O)c1c(C=NO)nn(-c2c(Cl)cc(C(F)(F)F)cc2Cl)c1N` [Compound 16, 5-Amino-1-[2,6-dichloro-4-(trifluoromethyl)phenyl]-4-methylsulfonyl-1H-pyrazole-3-carboxaldehyde oxime]: 209.5 to 211 °C (dec.); for `CON=Cc1nn(-c2c(Cl)cc(C(F)(F)F)cc2Cl)c(N)c1[S+](C)[O-]` (stereo not drawn) [Compound 17, 5-Amino-1-[2,6-dichloro-4-(trifluoromethyl)phenyl]-4-methylsulfinyl-1H-pyrazole-3-carboxaldehyde O-(methyl)oxime]: 80 °C.
As for `C[S+]([O-])c1cn(-c2c(Cl)cc(C(F)(F)F)cc2Cl)nc1C=NO` (stereo not drawn) [Compound 20, 1-[2,6-Dichloro-4-(trifluoromethyl)phenyl]-4-methylsulfinyl-1H-pyrazole-3-carboxaldehyde oxime], the melting point was 239 to 240 °C.
The same measure for `N=C(NO)c1nn(-c2c(Cl)cc(C(F)(F)F)cc2Cl)c(C=O)c1SC(F)(F)F` [Compound 22, 1-[2,6-Dichloro-4-(trifluoromethyl)phenyl]-5-formyl-N-hydroxy-4-trifluoromethylthio-1H-pyrazole-3-carboximidamide]: 72 to 75 °C; for `N=C(NO)c1nn(-c2c(Cl)cc(C(F)(F)F)cc2Cl)c(C=NO)c1SC(F)(F)F` [Compound 23, 1-[2,6-Dichloro-4-(trifluoromethyl)phenyl]-N-hydroxy-5-hydroxyiminomethyl-4-trifluoromethylthio-1H-pyrazole-3-carboximidamide]: 68 to 72 °C.
Then `CC(C)ON=Cc1nn(-c2c(Cl)cc(C(F)(F)F)cc2Cl)c(N)c1[S+](C)[O-]` (stereo not drawn) [Compound 24, 5-Amino-1-[2,6-dichloro-4-(trifluoromethyl)phenyl]-4-methylsulfinyl-1H-pyrazole-3-carboxaldehyde O-(isopropyl)oxime], with 128 to 130 °C; and `CSc1c(C=NO)nn(-c2c(Cl)cc(C(F)(F)F)cc2Cl)c1C` [Compound 29, 1-[2,6-Dichloro-4-(trifluoromethyl)phenyl]-5-methyl-4-methylthio-1H-pyrazole-3-carboxaldehyde oxime], with 160 to 162.5 °C; and `Cc1c([S+](C)[O-])c(C=NO)nn1-c1c(Cl)cc(C(F)(F)F)cc1Cl` (stereo not drawn) [Compound 30, 1-[2,6-Dichloro-4-(trifluoromethyl)phenyl]-5-methyl-4-methylsulfinyl-1H-pyrazole-3-carboxaldehyde oxime], with 210 to 214 °C.
The same measure for `C[S+]([O-])c1c(C=NO)nn(-c2ncc(C(F)(F)F)cc2Cl)c1N` (stereo not drawn) [Compound 32, 5-Amino-1-[3-chloro-5-(trifluoromethyl)-2-pyridinyl]-4-methylsulfinyl-1H-pyrazole-3-carboxaldehyde oxime]: 195.5 to 196.5 °C; for `CCSc1c(C=NO)nn(-c2c(Cl)cc(C(F)(F)F)cc2Cl)c1C` [Compound 33, 1-[2,6-Dichloro-4-(trifluoromethyl)phenyl]-4-ethylthio-5-methyl-1H-pyrazole-3-carboxaldehyde oxime]: 155 to 157 °C.
Turning to `CC[S+]([O-])c1c(C=NO)nn(-c2c(Cl)cc(C(F)(F)F)cc2Cl)c1C` (stereo not drawn) [Compound 34, 1-[2,6-Dichloro-4-(trifluoromethyl)phenyl]-4-ethylsulfinyl-5-methyl-1H-pyrazole-3-carboxaldehyde oxime], the melting point was in the range of 210 to 213 °C.
Then `CSc1c(C=NO)nn(-c2c(Cl)cc(C(F)(F)F)cc2Cl)c1N(C)C` [Compound 36, 1-[2,6-Dichloro-4-(trifluoromethyl)phenyl]-5-dimethylamino-4-methylthio-1H-pyrazole-3-carboxaldehyde oxime], with 178 to 181 °C; and `CC[S+]([O-])c1c(C=NO)nn(-c2c(Cl)cc(OC(F)(F)F)cc2Cl)c1N` (stereo not drawn) [Compound 37, 5-Amino-1-[2,6-dichloro-4-(trifluoromethoxy)phenyl]-4-ethylsulfinyl-1H-pyrazole-3-carboxaldehyde oxime], with 204 to 206 °C; and `Nc1c(C(F)(F)F)c(C=NO)nn1-c1c(Cl)cc(C(F)(F)F)cc1Cl` [Compound 38, 5-Amino-1-[2,6-dichloro-4-(trifluoromethyl)phenyl]-4-trifluoromethyl-1H-pyrazole-3-carboxaldehyde oxime], with 136 to 146 °C.
`CC(=NO)c1nn(-c2c(Cl)cc(C(F)(F)F)cc2Cl)c(N)c1[S+](C)[O-]` (stereo not drawn) [Compound 39, 3-Acetyl-5-amino-1-[2,6-dichloro-4-(trifluoromethyl)phenyl]-4-methylsulfinyl-1H-pyrazole oxime]: the melting point was 68 to 71 °C.
Then `CC[S+]([O-])c1c(C(=N)NO)nn(-c2c(Cl)cc(C(F)(F)F)cc2Cl)c1N` (stereo not drawn) [Compound 42, 5-Amino-1-[2,6-dichloro-4-(trifluoromethyl)phenyl]-N-hydroxy-4-ethylsulfinyl-1H-pyrazole-3-carboximidamide], with 186 to 189 °C; and `CCSc1c(C(=N)NO)nn(-c2c(Cl)cc(C(F)(F)F)cc2Cl)c1N` [Compound 43, 5-Amino-1-[2,6-dichloro-4-(trifluoromethyl)phenyl]-N-hydroxy-4-ethylthio-1H-pyrazole-3-carboximidamide], with 170 to 175 °C; and `C[S+]([O-])c1c(C(=N)NO)nn(-c2c(Cl)cc(C(F)(F)F)cc2Cl)c1N` (stereo not drawn) [Compound 44, 5-Amino-1-[2,6-dichloro-4-(trifluoromethyl)phenyl]-N-hydroxy-4-methylsulfinyl-1H-pyrazole-3-carboximidamide], with 225 to 227 °C and 225 to 226 °C.

(Values after US6638956B2, “Pesticidal 1-arylpyrazoles” (Rhone-Poulenc, Inc., priority 1996, dated 2003).)
